Laboratory results from the NIST ThermoML archive (doi:10.1016/j.fluid.2015.06.029).
Numbers after ± are expanded uncertainties.

test: refractive index (Na D-line) (dimensionless); settings: 303.15 K; 101.33 kPa; Liquid; Standard Abbe refractometry

Row | Structure (SMILES) | refractive index
1 | CC(C)C(=O)O [2-methylpropanoic acid] | 1.3893 ± 0.0009
2 | CCCCC(=O)O [pentanoic acid] | 1.4047 ± 0.0009
3 | CC(=O)O [acetic acid] | 1.3716 ± 0.0009
4 | O=S1(=O)CCCC1 [sulfolane] | 1.4823 ± 0.0009
5 | CCC(=O)O [propanoic acid] | 1.3829 ± 0.0009
6 | CC(C)CC(=O)O [3-methylbutanoic acid] | 1.3997 ± 0.0009
7 | CCCC(=O)O [butanoic acid] | 1.3947 ± 0.0009
8 | CCCCC [pentane] | 1.3523 ± 0.0009
